Results from patent US12152016B2, “Aryl hydrocarbon receptor modulators and uses thereof” (Beth Israel Deaconess Medical Center, Inc., priority 2018, dated 2024).
pEC50: −log10 of the molar value. “Also recorded” adds a separate entry of the source.

Experiments:
[1] = system: AHR-dependent transcription of the CYP1A1 gene; assay: CYP1A1 induction in mouse macrophages; type: cell-based
Protocol: (§1) Mouse macrophages were also used to test AHR-dependent transcription of the CYP1A1 gene in vivo. Finally, the activity of exemplary compounds of Formula (I) described herein was tested in the human […] cell line U937. The U937 cell line is derived from a patient with diffuse histiocytic lymphoma. Tables 2-4 summarize structure-activity relationship data collected for exemplary, non-limiting compounds of Formula (I) described herein.

[2] = Liver microsomal stability (LCMS/MS); type: in vitro ADME; details: in the presence of liver microsomes
[3] = target: T1, aryl hydrocarbon receptor (AHR) (Homo sapiens, UniProt P35869); assay: XRE-driven luciferase reporter assay, human HepG2; details: for XRE luciferase Emax (footnote c): Emax defined as fold increase at highest concentration tested (10 μM); for XRE luciferase Emax (fold): fold over vehicle
T1 sequence (P35869 11-848): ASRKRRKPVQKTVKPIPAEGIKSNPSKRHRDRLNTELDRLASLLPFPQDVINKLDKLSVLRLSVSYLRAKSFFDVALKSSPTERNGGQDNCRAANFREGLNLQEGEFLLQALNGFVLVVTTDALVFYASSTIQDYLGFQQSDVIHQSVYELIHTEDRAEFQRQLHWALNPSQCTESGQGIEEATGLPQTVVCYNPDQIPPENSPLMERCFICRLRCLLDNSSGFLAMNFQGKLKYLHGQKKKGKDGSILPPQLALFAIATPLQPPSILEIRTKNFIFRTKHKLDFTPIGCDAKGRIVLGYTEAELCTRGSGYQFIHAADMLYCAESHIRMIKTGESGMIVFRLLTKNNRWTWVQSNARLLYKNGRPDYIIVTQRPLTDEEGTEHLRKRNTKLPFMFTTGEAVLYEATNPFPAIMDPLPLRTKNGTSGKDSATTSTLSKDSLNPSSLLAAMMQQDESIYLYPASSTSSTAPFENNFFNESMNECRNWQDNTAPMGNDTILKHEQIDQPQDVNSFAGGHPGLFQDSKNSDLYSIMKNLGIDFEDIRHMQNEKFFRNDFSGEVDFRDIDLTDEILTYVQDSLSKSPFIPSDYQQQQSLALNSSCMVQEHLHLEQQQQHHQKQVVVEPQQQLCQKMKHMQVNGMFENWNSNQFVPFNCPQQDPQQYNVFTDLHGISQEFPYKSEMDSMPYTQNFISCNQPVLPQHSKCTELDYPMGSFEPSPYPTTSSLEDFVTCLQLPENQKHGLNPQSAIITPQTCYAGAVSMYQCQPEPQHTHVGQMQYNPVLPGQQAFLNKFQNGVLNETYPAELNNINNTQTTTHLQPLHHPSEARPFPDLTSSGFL
Protocol: The Human HepG2 cell line is a human liver cancer cell line, and provide a relevant in vitro AHR activity model. These Hep2G cells have been modified to stably express an AHR-responsive (XRE) firefly luciferase reporter gene to give Hep2G-XRE cells. The expression of luciferase should primarily reflect AHR-dependent transcription controlled by XRE.
Transfected cells were treated with AhR agonist (10^−5-10^−12) for 4.5 h in full medium. Cells were lysed and luciferase was activated using the Luciferase Assay System (Promega). Luminescence signals were measured with a FluroStar Omega microplate reader. Luminescence signals of compound treated groups were normalized to vehicle (DMSO) treated control and plotted as concentration dependent fold changes.

[4] = Plasma stability (LCMS/MS); type: in vitro ADME; details: incubated in plasma
[5] = system: AHR-dependent transcription of the CYP1A1 gene; assay: CYP1A1 induction in human U937 cells; type: cell-based; details: Human U937, 1 μM
Protocol: as §1

[6] = cited from earlier work
cyp1a1 [7] = assay: cyp1a1 expression by q-PCR in mouse Hepa-1c1c7 cells; type: cell-based
Protocol: (§2) RNA was extracted using TRIzol (Invitrogen) following manufacturer's instructions and 0.1 μg of RNA was converted to cDNA using a high capacity cDNA reverse transcription kit (Invitrogen). qPCR was performed on the Applied Biosystems 7900 using TaqMan® Universal PCR Master Mix (Life Technologies) with TaqMan® (Life Technologies) primers against cyp1a1 (Mm00487218_m1), AhR (Mm00478932_m1), IL-22 (Mm01226722_g1), Foxp3 (Mm00475162_m1), IL-10 (Mm01288386_m1), TNF-a (Mm00443258_m1), IFN-r (Mm01168134_m1). The fold increase from experimental groups to control was calculated using the delta-delta CT method with 18S (Mm00446186_m1) as an internal reference gene. In vitro and in vivo activation of the AhR singling pathway was confirmed by q-PCR characterization of cyp1a1. For in vitro induction, mouse Hepa-1c1c7 were cultured to confluence in 24 well plates in full DMEM followed by 24 hours incubation in tryptophan deficient media. Cells were treated with vehicle control (DMSO), ITE, compound 108, or compound 109 (10 nM-10 μM) for 8 hours in tryptophan deficient media. At the end of treatment, cells were lysed in TRIzol for RNA isolation. To monitor in vivo induction, (0.1-1000 μg) compound 109 was given per mouse via oral gavage in 100 μl of vehicle (1% HPMC, 1% polysorbate 80). After 12 hours, liver, colon, spleen and leukocytes from blood were collected and lysed in TRIzol (Invitrogen) for q-PCR analysis.

DSS induced colitis = DSS induced colitis in mice; type: in vivo, C57BL/6 mice; details: 1 μg/day PO; day 11
Protocol: C57BL/6 (8-10 week, male) mice were administered drinking water supplemented with 3% (wt/vol) dextran sodium sulfate (DSS; MP Biomedicals) for 7 days followed by a 13 day recovery period with unsupplemented drinking water. Compound 109 or compound 108 were suspended in vehicle (1% HPMC and 1% polysorbate 80 in water) and given daily by oral gavage (1 ug/mouse in 100 uL), starting at day 0. Control mice were administered 100 μL vehicle. Body weight and disease activity index (DAI) were recorded daily. DAI was determined by combining scores of weight loss, stool consistency, blood in stool, activity, and appearance.^1 Scores were determined as follows: change in weight (0: <1%, 1: 1-10%, 2: 10-18%, 3: 18-20%); stool consistency (0: normal, 1: loose stools, 2: diarrhea); stool blood (0: negative, 1: trace blood, 2: bloody stool, 3: gross bleeding), activity (0: normal, 1: low activity, 2: hiding, 3: no response to gentle stimuli) and appearance (0: normal, 1: rigor, 2: hunched posture). On day 7 and day 11, mice were euthanized and colon were removed for length measurement, histology, RNA isolation, and lamina propria mononuclear cell (LPMC) extraction as detailed below.
Dissected colon were cut longitudinally and rolled using the Swiss roll method with the distal side in the center.^2,3 Colons were fixed overnight in 10% neutral buffered formalin, processed for paraffin embedding and sectioned at 5 μm thickness. To visualize and quantify the inflammatory response and crypt loss, hematoxylin and eosin staining (H&E) was performed. Briefly, sections were cleared with xylene, rehydrated through alcohol gradient, stained by hematoxylin, washed by acid and ammonium alcohol, rinsed in water and exposed to Eosin followed by dehydrating through graded alcohols and cleared in xylene. All sections were mounted using Permount (Fisher Scientific) and visualized using a BX41 microscope (Olympus). For histological scoring, 3 transverse sections of Swiss roll were chosen and 9 (100×) images were captured for each section. Images were analyzed for inflammation and crypt structure and scored by a blind observer as follows: inflammation (0: rare inflammatory cells in the lamina propria; 1: increased numbers of inflammatory cells in the lamina propria; 2: confluence of inflammatory cells extending in to the submucosa; 3: transmural extension of the inflammatory infiltrate.); crypt loss (0: none; 1: basal 1/3 damaged; 2: basal 2/3 damaged; 3: only surface epithelium intact; 4: entire crypt and epithelium lost). Inflammation and crypt loss were scored separately and multiplied by a factor of 1-4 to adjust for impacted area of tissue section (1: 0-25%; 2: 25.1-50% affected; 3: 50.1-75% affected; 4: >75% affected).^1,4 To examine goblet cell number, sections were stained by a commercial periodic acid-Schiff (PAS) and Alcian blue kit (Fisher Scientific). For quantification, 3 transverse sections of Swiss roll were chosen per colon and 5 random images at 200x were taken per section in the distal region of the colon. Goblet cell number was counted per image and normalized to colon length by a blind observer using image J.^5
Colonic epithelium and lamina propria cells were isolated as previously described.^6,7 Briefly, colons were dissected and washed with HBSS to remove fecal contents. Colon were opened longitudinally and cut into 2 cm segments. […]

cyp1a1 [8] = assay: In vivo tissue cyp1a1 induction after oral gavage (PD profile); set-up: species or system mouse; details: mice, oral gavage 0.1-1000 μg, 12 hours
Protocol: as §2, with “After 12 hours, liver, colon, spleen and leukocytes from blood were collected and lysed in TRIzol (Invitrogen) for q-PCR analysis.” left out

[9] = XRE luciferase EC50 (footnote a), Human HepG2, EC50 defined as concentration induced 50% of Emax of ITE
[10] = XRE luciferase EC50, Human HepG2, least square curve fitting, >10,000 = does not reach 50% of Emax of ITE at 10 μM (highest concentration tested)

CYP1A1 induction (% of ITE ± SEM) ([1]; 50 nM) | CYP1A1 induction (% of ITE ± SEM) ([1]; 5 μM) | XRE luciferase Emax (footnote c) ([3]; Human HepG2) | pEC50 [3, 10] | CYP1A1 induction (% of ITE ± SEM) [5] | SMILES | also measured
91 ± 7 % of ITE | 97 ± 9 % of ITE | (114)^c fold | 7.92 |  | O=C(c1cccc(-c2ccccc2)n1)c1c[nH]c2ccccc12 [Compound 113, 1H-indol-3-yl-(6-phenyl-2-pyridyl)methanone] | liver microsomal stability [2]: rapidly metabolized; pEC50 [3, 9]: 7.92; plasma stability [4]: stable
168 ± 86 % of ITE | 101 ± 33 % of ITE |  | 7.02 | 165 ± 27 % of ITE | COc1cccc(C(=O)c2c[nH]c3ccccc23)n1 [Compound 5] | CYP1A1 induction (% of ITE ± SEM) ([1]; 5 nM): 57 ± 22 % of ITE; XRE luciferase Emax (fold) ([3]; Human HepG2): 48 fold
14 ± 4 % of ITE | 90 ± 2 % of ITE |  | 6.17 | 48 ± 6 % of ITE | COC(=O)c1cccc(C(=O)c2n[nH]c3ccccc23)c1 [reference compound] | XRE luciferase Emax (fold) ([3]; Human HepG2): 117 fold
 |  |  |  |  | Clc1cc2c(cc1Cl)Oc1cc(Cl)c(Cl)cc1O2 [TCDD, 2,3,7,8-tetrachlorodibenzo-p-dioxin] | half-life [6]: 2,840 days
124 ± 5 % of ITE | 90 ± 17 % of ITE |  | 8.64 |  | O=C(c1cccc(C(F)(F)F)n1)c1c[nH]c2ccccc12 [Compound 109, 1H-indol-3-yl-[6-(trifluoromethyl)-2-pyridyl]methanone] | cyp1a1 expression relative to ITE and compound 108 (cyp1a1 [7]; mouse Hepa-1c1c7, 10 nM): significantly increased cyp1a1 expression; cyp1a1 expression (qPCR) (cyp1a1 [7]; mouse Hepa-1c1c7, 10 nM-10 μM, 8 hours): induced AhR-dependent cyp1a1 expression; also recorded: dose dependent induction of cyp1a1 expression; colon IL-22 expression, upregulation (DSS induced colitis): 10 fold; cyp1a1 induction in liver and colon tissue (cyp1a1 [8]): induced dose-dependent cyp1a1; also recorded: Robust, dose-dependent cyp1a1 induction; cyp1a1 induction in spleen and blood (WBC) (cyp1a1 [8]): limited cyp1a1 induction was observed in spleen; also recorded: cyp1a1 regulation only at the highest administered doses
1 ± 0.2 % of ITE | 27 ± 3 % of ITE | (87)^c fold |  | 194 ± 18 % of ITE | COc1cccc(C(=O)c2n[nH]c3ccccc23)c1 [reference compound] | pEC50 [3, 9]: 5.70

SMILES | CYP1A1 induction (% of ITE ± SEM) ([1]; 50 nM) | CYP1A1 induction (% of ITE ± SEM) ([1]; 5 μM) | XRE luciferase Emax (footnote c) ([3]; Human HepG2) | pEC50 [3, 10] | CYP1A1 induction (% of ITE ± SEM) [5] | also measured
COc1cccc(C(=O)c2c[nH]c3ccccc23)c1 [Compound 9] | 9 ± 5 % of ITE |  | (25)^c fold | < 5.00 | 101 ± 12 % of ITE | 
